According to patent US5238964A, “Agent for treatment of cerebrovascular contraction” (Torii & Co., Ltd., priority 1990, dated 1993):

How the values were obtained:
[1] = experimental subarachnoid bleeding in rabbits, basal arteria thickness ratio; assay type: in vivo, rabbit; settings: for suppression of cerebrovascular contraction subsequent to subarachnoid bleeding: rabbits, i.v.; for Basal arteria thickness ratio: after vs before subarachnoid bleeding
Method: By injecting previously collected blood into the postcisterna of a rabbit, subarachnoid bleeding similar to human subarachnoid bleeding can be produced experimentally in the rabbit. The therapeutic effect of a pharmaceutical composition for treating cerebrovascular contraction is judged by comparing the thickness of the basal arteria before and after the experimental production of subarachnoid bleeding.
Subarachnoid bleeding was produced experimentally in rabbits, and 20 minutes thereafter 3 mg, 6 mg and 9 mg of 6-amidino-2-naphthyl p-guanidinobenzoate dimethanesulfonate [drawing 12] were respectively administered intravenously to the rabbits.

[2] = intermittent intravenous administration to subarachnoid bleeding patients after acute phase operation (DIND, CT low, Angiographic Spasm Scale, Glasgow Outcome Scale); assay type: in vivo, human (patients); settings: for CT low due to spasm: control 43%; for good recovery (Glasgow Outcome Scale) / vegetative survival+death (Glasgow Outcome Scale): control 36%
Method: We have tried intermittent intravenous administration of FUT-175 (nafamostat mesilate, the present compound) for the purpose of prevention and/or treatment of cerebrovascular contraction after acute phase operation on subarachnoid bleeding patients. A dosage of 40-160 mg/day was chosen by converting the amount of drug per kg rabbit weight to amount of drug per kg of human weight.
The subjects were the ruptured cerebral aneurysm patients who had acute phase operation and belonged to Group 3 or 4 in Fisher's preoperative CT classification (Fisher, C. M., et al., "Cerebral vasospasm with ruptured saccular aneurysm-Clinical manifestations" (1977), Neurosurgery, volume 1, pages 245-248). […] Also, the subjects were limited to the cases of Grades II-IV in Hunt and Hess gravity grating without modification by previous history and to the patients to whom administration could be started within 48 hours after crisis (Hunt, W. E., et al., "Surgical risk as related to time of intervention in the repair of intracranial aneurysms" (1968), J. Neurosurg., volume 28, pages 14-20).
The compound was given to the subjects by intermittent intravenous administration starting immediately after operation. In Group A, the compound was administered twice a day, 20 mg per administration (40 mg in total daily dosage) for 4 days; four times a day, 20 mg per administration (80 mg in total daily dosage) for 4 days in Group B; and four times a day, 40 mg per administration (160 mg in total daily dosage) for 4 days in Group C. Each dose of the compound was dissolved in 100 ml of physiological saline. Time of one intravenous administration was normally 2 hours.
The control cases were the serious subarachnoid bleeding patients after acute phase clipping operation performed in our clinic in 1989. Both groups were substantially commensurate with each other in gravity grating and CT classification (Fisher classification by computed tomography), but in the control group there were slightly more cases of mycotic cerebral aneurysm than in the treated group.
There was no difference between the control and treated groups in substances of treatment excepting administration of the present compound and in operating staff. The effect of the treatment was judged by occurrence or non-occurrence of delayed ischemic neurological deficit (DIND), low-density CT area due to vasospasm and caliber change in arteries as observed by cerebral angiography conducted in the period from day 5 to day 8 (post occurrence of cerebrovascular contraction) which is considered the peak period of development of vasospasm.
For judgement of spasm in the control group, an Angiographic Spasm Scale (ASS) of the following grading was prepared:
Grade 0 (none): No caliber change in any arteries,
Grade 1 (mild): Vascular contraction is localized,
Grade 2 (moderate): Multisegmental vascular contraction is observed, and
Grade 3 (severe): Severe contraction exceeding 50% is seen in multisegmental sites (Weir, B., et al., "Time course of vasospasm in man" (1978), J. Neurosurg., volume 48, pages 173-178; Kim, H., et al., "Time course of vasospasm--Its clinical significance" (1979), Neuro. Med. Chir. (Tokyo), volume 19, pages 95-102).
The Glasgow Outcome Scale (GOS) was used to evaluate the outcome one month after crisis. According to GOS, there are five degrees: 1-death, 2-vegetative state, 3-severe disability, 4-moderate disability, 5-good recovery.

[3] = system: circulating blood coagulating action; assay: bleeding and coagulation times measured during intravenous administration in treated groups B and C; assay type: in vivo, human (patients)
Excerpt: The present compound is a serine protease inhibitor which can inhibit various kinds of serine protease including C 1r, C 1s, factor B and factor D of complement system, factor XIIa, factor Xa and thrombin of coagulation system, plasma kallikrein of quinine system, plasmin of fibrinolytic system, trypsin, etc. […] It was considered that the administration method employed in this experiment would give no influence on circulating blood coagulating action of the compound.

platelet agglutination = settings: cited from earlier work
C 1r = settings: complement system; cited from earlier work
C 1s = settings: complement system; cited from earlier work
[4] = system: factor B of complement system; settings: cited from earlier work
[5] = system: factor D of complement system; settings: cited from earlier work
factor XIIa = settings: coagulation system; cited from earlier work
factor Xa = settings: coagulation system; cited from earlier work
thrombin = settings: coagulation system; cited from earlier work
plasma kallikrein = settings: quinine system; cited from earlier work
plasmin = settings: fibrinolytic system; cited from earlier work
trypsin = settings: cited from earlier work
[6] = cited from earlier work
[7] = Groups A, B and C, one month after crisis
[8] = Groups B and C (higher dosage), one month after crisis
[9] = after serious subarachnoid bleeding

For CS(=O)(=O)O.N=C(N)Nc1ccc(C(=O)Oc2ccc(SCCN3C(=O)CCC3=O)cc2)cc1 [4-(2-succinimidoethylthio)phenyl 4-guanidinobenzoate methanesulfonate], the “suppression of cerebrovascular contraction subsequent to subarachnoid bleeding” value [1] was “clearly suppressed the cerebrovascular contraction subsequent to subarachnoid bleeding, showing the same effect as that of the compound used in Example 1”.

With CS(=O)(=O)O.CS(=O)(=O)O.N=C(N)Nc1ccc(C(=O)Oc2ccc3cc(C(=N)N)ccc3c2)cc1 [6-amidino-2-naphthyl p-guanidinobenzoate dimethanesulfonate] the “Basal arteria thickness ratio” value ([1]; 3 mg/kg i.v., 1st day) was 86%, the “Basal arteria thickness ratio” value ([1]; 3 mg/kg i.v., 2nd day) was 79% and the “Basal arteria thickness ratio” value ([1]; 3 mg/kg i.v., 3rd day) was 85%. For the same compound, the “Basal arteria thickness ratio” value ([1]; 3 mg/kg i.v., 4th day) was 88%, the “Basal arteria thickness ratio” value ([1]; 3 mg/kg i.v., 5th day) was 90% and the “Basal arteria thickness ratio” value ([1]; 6 mg/kg i.v., 1st day) was 97%. For the same compound, the “Basal arteria thickness ratio” value ([1]; 6 mg/kg i.v., 2nd day) was 95%, the “Basal arteria thickness ratio” value ([1]; 6 mg/kg i.v., 3rd day) was 95% and the “Basal arteria thickness ratio” value ([1]; 6 mg/kg i.v., 4th day) was 96%. For the same compound, the “Basal arteria thickness ratio” value ([1]; 6 mg/kg i.v., 5th day) was 101%, the “suppression of cerebrovascular contraction subsequent to subarachnoid bleeding” value [1] was “clearly suppressed the cerebrovascular contraction” and the “CT-low attributable to DIND” value ([2]; Group A, 40 mg/day for 4 days) was 2 out of 9. For the same compound, the “cases at grade 1 of ASS” value ([2]; Group A, 40 mg/day for 4 days) was 3 cases, the “cases at grade 2 of ASS” value ([2]; Group A, 40 mg/day for 4 days) was 3 cases and the “cases at grade 3 of ASS” value ([2]; Group A, 40 mg/day for 4 days) was 3 cases. The “incidence of DIND” value ([2]; Group A, 40 mg/day for 4 days) was 2 out of 9, the “cases at grade 0 (no caliber change in any arteries)” value ([2]; Group B, 80 mg/day for 4 days) was 4 cases and the “cases at grade 1 of ASS” value ([2]; Group B, 80 mg/day for 4 days) was 3 cases. For the same compound, the “cases at grade 3 of ASS” value ([2]; Group B, 80 mg/day for 4 days) was “one”, the “incidence of DIND” value ([2]; Group B, 80 mg/day for 4 days) was “one out of 9” and the “low density area on CT scan” value ([2]; Group B, 80 mg/day for 4 days) was “no case”. For the same compound, the “incidence of DIND” value ([2]; Group C, 160 mg/day for 4 days) was “no case”, the “good in GOS (Glasgow Outcome Scale)” value ([2]; Group C, 160 mg/day for 4 days, one month after crisis) was 4 out of 5 and the “subjects with no change or mild degree of contraction (angiographic spasm grading)” value ([2]; Groups A, B and C) was 64%. The “ASS Grade 3 (severe)” value ([2]; Groups A, B and C combined) was 18%, the “CT low due to spasm” value ([2]; Groups A, B and C) was 9% and the “incidence of DIND” value ([2]; Groups A, B and C, control 55%) was 13%. For the same compound, the “good recovery (Glasgow Outcome Scale)” value [2, 7] was 65%, the “vegetative survival+death (Glasgow Outcome Scale)” value [2, 7] was 9% and the “ASS Grade 3 (severe)” value ([2]; Groups B and C (higher dosage)) was 8%. For the same compound, the “subjects mild or none in degree of contraction (angiographic spasm grading)” value ([2]; Groups B and C (higher dosage)) was 85%, the “CT low due to spasm” value ([2]; Groups B and C (higher dosage)) was 0% and the “incidence of DIND” value ([2]; Groups B and C (higher dosage), control 55%) was 7%. The “good recovery (Glasgow Outcome Scale)” value [2, 8] was 71%, the “vegetative survival+death (Glasgow Outcome Scale)” value [2, 8] was 0% and the “inhibition of incidence of delayed ischemic neurological deficit” value [2, 9] was “could inhibit incidence of delayed ischemic neurological deficit”. For the same compound, the “prognosis of the patient” value [2, 9] was “improve the prognosis of the patient”, the “activated partial thromboplastin time (APTT)” value [3] was “in the normal ranges” and the bleeding time [3] was “in the normal ranges”. For the same compound, the coagulation time [3] was “in the normal ranges”, the “prothrombin time (PT)” value [3] was “in the normal ranges” and the “platelet agglutination inhibiting action” value (platelet agglutination) was “concentration dependent platelet agglutination inhibiting action”. The “inhibition of C 1r” value (C 1r) was “can inhibit”, the “inhibition of C 1s” value (C 1s) was “can inhibit” and the “inhibition of factor B” value [4] was “can inhibit”. The “inhibition of factor D” value [5] was “can inhibit”, the “inhibition of factor XIIa” value (factor XIIa) was “can inhibit” and the “inhibition of factor Xa” value (factor Xa) was “can inhibit”. The inhibition of thrombin (thrombin) was “can inhibit”, the “inhibition of plasma kallikrein” value (plasma kallikrein) was “can inhibit” and the inhibition of plasmin (plasmin) was “can inhibit”. The inhibition of trypsin (trypsin) was “can inhibit”, the passage into tissue ([6]; in vivo) was “quickly passes into tissue” and the “half-life period in blood, α phase” value ([6]; α phase) was 1.1 min. For the same compound, the “half-life period in blood, β phase” value ([6]; β phase) was 23.1 min.
